Reference: patent US9757358B2 (priority 2010, dated 2017)

Columns and labels:
[1] = test system: opioid analgesia; settings: Chichenkov et al. 1985; cited from earlier work
[2] = test system: morphine dependence; settings: cited from earlier work
[3] = test system: post-operative pain in rats (mechanical allodynia); settings: rat, in vivo
[4] = test system: post-operative pain in rats (thermal hyperalgesia); assay: Thermal hyperalgesia (Ugo Basile plantar test) after plantar incision, post-operative pain in rats; type: in vivo, rat; settings: given 3.5 h after surgery
[5] = target: sigma 2 (σ-2) site (Homo sapiens, UniProt Q5BJF2); settings: cited from earlier work
Chain of sigma 2 (σ-2) site (Q5BJF2 whole entry): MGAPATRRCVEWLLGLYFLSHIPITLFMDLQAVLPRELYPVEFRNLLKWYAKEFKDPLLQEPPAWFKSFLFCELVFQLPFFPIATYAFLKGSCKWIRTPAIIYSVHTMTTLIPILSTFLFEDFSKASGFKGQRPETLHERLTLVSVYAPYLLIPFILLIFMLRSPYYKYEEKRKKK

O=C(CCCN1CCC(O)(c2ccc(Cl)cc2)CC1)c1ccc(F)cc1 [Haloperidol, haloperidol]
effect on activity of opioids and opiates (morphine, DADL, bremazocine) [1]: potentiates the activity of different opioids and opiates

COc1ccc(CCN2CCN(CCCc3ccccc3)CC2)cc1OC [SA4503]
effect on addiction to morphine ([2]; morphine-induced place preference, Nomura et al. 1999): modulatory effect on addiction to morphine

Cc1cc(OCCN2CCOCC2)nn1-c1ccc2ccccc2c1 [compound 63, 4-{2-[5-Methyl-1-(naphthalen-2-yl)-1H-pyrazol-3-yloxy]ethyl}morpholine]
effect on buprenorphine analgesia [3]: enhances buprenorphine analgesia
effect on morphine analgesia [3]: enhances morphine analgesia
effect on oxycodone analgesia [3]: enhances oxycodone analgesia
effect on tapentadol analgesia [3]: enhances tapentadol analgesia
effect on tramadol analgesia [3]: enhances tramadol analgesia
effect on tramadol analgesia ([4]; compound 63 5, 10, 20, 40 mg/kg + tramadol 1.25 mg/kg): enhances tramadol analgesia
effect on morphine analgesia ([4]; compound 63 10, 20, 40, 80 mg/kg + morphine 0.625 mg/kg): enhances morphine analgesia

SKF 10047
affinity for the sigma 2 site [5]: micromolar affinity

dehydroepiandrosterone sulfate [DHEA]
effect on development of morphine dependence ([2]; Noda et al. 2001): some capacity to attenuate the development of morphine dependence
